Assay results from patent publication US9796727B2, “Field effect transistor” (Nippon Kayaku Kabushiki Kaisha, priority 2009, dated 2017).
Values after ≈ are worked out from the molar mass of the structure shown.

Experiment: Solubility measurement in toluene
Type: physicochemical
Conditions: 60° C.
Description: Example 1: Solubility Measurement
In Table 2, solubility (g/L) in toluene at 60° C. is listed.

Compound | solubility in toluene
CCCCCCCCc1ccc2cc3c(cc2c1)sc1c2cc4ccc(CCCCCCCC)cc4cc2sc31 [Compound No. 10, 6,6′-dioctyldinaphtho[2,3-b:2′,3′-f]thieno[3,2-b]thiophen] | 60 µg/mL (≈ 106 µM)
CCCCCCCCCCc1ccc2cc3c(cc2c1)sc1c2cc4ccc(CCCCCCCCCC)cc4cc2sc31 [Compound No. 12, 6,6′-Didecyldinaphtho[2,3-b:2′,3′-f]thieno[3,2-b]thiophen] | 50 µg/mL (≈ 80.5 µM)
CCCCCCCCCCCCc1ccc2cc3c(cc2c1)sc1c2cc4ccc(CCCCCCCCCCCC)cc4cc2sc31 [Compound No. 14, 6,6′-Didodecyldinaphtho[2,3-b:2′,3′-f]thieno[3,2-b]thiophen] | 40 µg/mL (≈ 59.1 µM)
CCCCCCc1ccc2cc3c(cc2c1)sc1c2cc4ccc(CCCCCC)cc4cc2sc31 [compound 6, 6,6′-Dihexyldinaphtho[2,3-b:2′,3′-f]thieno[3,2-b]thiophen] | 80 µg/mL (≈ 157 µM)
c1ccc2cc3c(cc2c1)sc1c2cc4ccccc4cc2sc31 [ref. 1, dinaphtho[2,3-b:2′,3′-f]thieno[3,2-b]thiophene, reference compound] | ≤ 10 µg/mL
CCCCc1ccc2cc3c(cc2c1)sc1c2cc4ccc(CCCC)cc4cc2sc31 [ref. 2, 6,6′-Dibutyldinaphtho[2,3-b:2′,3′-f]thieno[3,2-b]thiophen, reference compound] | 20 µg/mL (≈ 44.2 µM)
